Source: patent US20040023295A1, “Methods and systems for analyzing complex biological systems” (priority 2001, published 2004)

System: Saccharomyces cerevisiae wild type strain BY4743
Assay: AF1 combined gene expression and metabolite data mapped to KEGG reactions and pathways
Format: cell-based
Excerpt: In AF1, two different technologies were utilized: gene expression analysis (for examination of mRNA expression) and metabolite analysis. […] As noted previously, existing metabolic databases may be helpful in practicing the methods and systems of the present invention, but many databases include limitations that make their use in data analysis and pathway mapping less than straightforward. […] This caveat to KEGG makes it difficult to pinpoint the correct pathway when attempting to link a gene to a specific pathway. The pathway score indicates how meaningful the mapping is, or how likely it is to be correctly indicative of the pathway involved in the perturbation under examination. […] Degree of perturbation can be calculated, for example, based on a number of standard deviations from a norm, and included in an equation such as the one shown above, so that not only the number of pathways is taken into account, but also accounts for the amount of gene transcript or compound present as compared to a control. […] KEGG links 676 compounds measured in AF1 to a total of 92 pathways. Of the 676 compounds under consideration, 77 were detected in the AF1 samples. […]

`C[C@@H]1[C@H](O)[C@@H](C)/C=C/C=C/C=C/C=C/C=C/C=C/C=C/[C@H](O[C@@H]2O[C@H](C)[C@@H](O)[C@H](N)[C@@H]2O)C[C@@H]2O[C@](O)(C[C@@H](O)C[C@@H](O)[C@H](O)CC[C@@H](O)C[C@@H](O)CC(=O)O[C@H]1C)C[C@H](O)[C@H]2C(=O)O` [Amphoteracin B] was tested, and the “# Reactions (title: Number Of Pathways Having at Least One Enzyme and One Compound Perturbed)” value was 37 and the “# Reactions Having an Enzyme and at Least One Compound Perturbed” value was 54.
